According to ChEMBL document CHEMBL5329183, “Naphthylthiazoles: a class of broad-spectrum antifungals” (RSC Med Chem, 2023):
Values after ≈ are worked out from the molar mass of the structure shown.

Assays:
Type in all cases: functional
Escherichia coli [1] = assay: Antibacterial activity against wild type Escherichia coli BW25113 assessed as inhibition of bacterial growth
Escherichia coli [2] = assay: Antibacterial activity against Escherichia coli JW55031 harboring tolC mutant assessed as inhibition of bacterial growth
Candida albicans = assay: Antifungal activity against wild type Candida albicans SC5314 assessed as inhibition of fungal growth
Clostridioides difficile = assay: Antibacterial activity against Clostridium difficile ATCC BAA1870 assessed as inhibition of bacterial growth
Staphylococcus aureus = assay: Antibacterial activity against Methicillin-resistant Staphylococcus aureus USA300 assessed as inhibition of bacterial growth

Row | Molecule | MIC (Escherichia coli [1]) [µg/mL] | MIC (Escherichia coli [2]) [µg/mL] | MIC (Candida albicans) [µg/mL] | MIC (Clostridioides difficile) [µg/mL] | MIC (Staphylococcus aureus) [µg/mL]
1 | Cc1nc(-c2ccc3ccccc3c2)sc1-c1nnc(N2CC[C@@H](N(C)C)C2)o1 | > 64 | 32 (≈ 78.9 µM) | 32 (≈ 78.9 µM) | 16 (≈ 39.5 µM) | 4 (≈ 9.86 µM)
2 | Cc1nc(-c2ccc3ccccc3c2)sc1-c1nnc(N2CCC[C@H]2CO)o1 | > 64 | > 64 | > 64 | > 64 | > 64
3 | Cc1nc(-c2ccc3ccccc3c2)sc1-c1nnc(NCCN)o1 | > 64 | 64 (≈ 182 µM) | 32 (≈ 91.1 µM) | 64 (≈ 182 µM) | 32 (≈ 91.1 µM)
4 | GENTAMICIN | < 0.5 | < 0.5 | – | – | –
5 | Cc1nc(-c2ccc3ccccc3c2)sc1-c1nnc(N2CC[C@H](N(C)C)C2)o1 | > 64 | > 64 | 8 (≈ 19.7 µM) | > 64 | > 64
